Experimental data taken from patent US8586538B2, “Method of treating a patient suffering from a bleeding disorder comprising administering an antibody against the A3-C1 of FVIII” (Stichting Sanquin Bloedvoorziening, priority 2002, dated 2013).

Test system: LRP cluster II
Assay: SPR binding of LRP cluster II to immobilized light chains (FVIII, FVa, FVIII/FV chimera)
Settings: LRP cluster II 100 nM; immobilized light chain
Procedure: FIG. 3. Binding of LRP cluster II to immobilized FVa light chain. […] Response is indicated as Resonance Units (RU) and is corrected for nonspecific binding, which was less than 5% relative to coated channels.
FIG. 6. Binding of LRP cluster II to the FVIII/FV^1811-1818 light chain chimera. ScFv EL14 at a CM5 sensor chip (67 fmol/mm^2) was incubated with either the recombinant wild-type FVIII light chain or the recombinant FVIII/FV^1811-1818 chimera till a density of 20 fmol/mm^2, in 150 mM NaCl, 50 mM Tris (pH 7.4). […] Bound LRP cluster II is expressed as the amount associated after 2 min.
The kinetics of protein interactions was determined by surface plasmon resonance (SPR) analysis, employing a BIAcore™2000 biosensor system (Biacore AS, Uppsala, Sweden). […] Association of analyte was assessed in 150 mM NaCl, 2 mM CaCl2, 0.005% (v/v) Tween® 20, and 20 mM Hepes (pH 7.4) for 2 min, at a flow rate of 20 μl/min at 25° C. […] The association (kon) and dissociation (koff) rate constants were determined by using the BIAevaluation software 3.1 (Biacore AB, Uppsala, Sweden). […] Equilibrium dissociation constants (kd) were calculated from the ratio koff/kon. […]

Sequence of LRP cluster II (Q07954 803-1182 limits assumed): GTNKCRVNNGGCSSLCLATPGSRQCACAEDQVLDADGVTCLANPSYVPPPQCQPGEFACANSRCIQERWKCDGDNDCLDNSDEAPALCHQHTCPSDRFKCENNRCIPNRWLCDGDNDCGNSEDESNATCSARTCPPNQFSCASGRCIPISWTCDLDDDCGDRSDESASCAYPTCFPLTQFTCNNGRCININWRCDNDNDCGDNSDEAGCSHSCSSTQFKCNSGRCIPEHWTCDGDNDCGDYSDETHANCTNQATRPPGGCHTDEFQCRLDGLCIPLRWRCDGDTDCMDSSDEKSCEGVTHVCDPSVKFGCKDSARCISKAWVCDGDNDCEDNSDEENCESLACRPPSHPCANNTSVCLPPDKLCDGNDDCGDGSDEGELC

Binding to LRP cluster II: did not interact
Substance: FVa light chain: light chain of thrombin-activated human Factor V purified from plasma
